Columns and labels:
[1] = tested on: fungal tyrosinase (EC. 1.14.18.1); assay: Measurement of the power to inhibit tyrosinase (L-Dopa oxidation to dopachrome, O.D. at 475 nm); type: biochemical; conditions: for Concentration which inhibits the enzymatic activity of tyrosinase by 50%: fungal tyrosinase, L-Dopa substrate, pH 6.5, 30° C.; for Times more active than hydroquinone in inhibiting tyrosinase: relative to hydroquinone
Protocol: The following reaction is used: colourless L-Dopa (L-3,4-dihydroxyphenylalanine, obtained from Sigma (ref. D-9628)) is oxidized to coloured dopachrome, which absorbs at 475 nm. This reaction is catalyzed by fungal tyrosinase (EC. 1.14.18.1, obtained from Sigma (ref. T-7755)). The kinetics of the reaction are recorded by the measurement of the optical density (O.D.) as a function of the time at 30° C.
The compositions of the various solutions used are as follows:
L-Dopa at 0.35% (w/v) in the pH 6.5 buffer solution.
The inhibiting molecules are dissolved directly in the pH 6.5 buffer, in 50% methanol (methanol/distilled water) or in pure methanol, depending upon their solubility.
The concentrations in weight by volume of the various solutions of inhibitors are: 0.2%, 0.1%, 0.05%, 0.025%, 0.0125%, 0.00625% and 0.00312%.
Tyrosinase at 0.010% (w/v) in the pH 6.5 buffer solution.
The amounts of these various solutions used during the tests are presented in Tables 1 and 2 for each reaction studied:
The action of tyrosinase is evaluated by the initial rate of the reaction measured on the O.D. recording.
The initial rates of reactions without inhibitors (concentration 0) and the rates at the various concentrations tested are plotted on a curve.
The inhibiting power of a molecule is defined as the concentration which reduces the action of tyrosinase by 50%.

cultured melanocytes = assay: Power to inhibit the synthesis of melanin with regard to cultured melanocytes; type: cell-based; conditions: for Effect on the synthesis of melanin (in words) / Inhibition of the synthesis of melanin: concentration of 0.00035%; for Inhibition of the synthesis of melanin: 8 independent tests
Protocol: These tests were carried out on different batches of cells during experiments which were independent and repeated (8 times).
The results are expressed in mg/ml of melanin in so far as the cells are inoculated at the same concentration.

[2] = tested on: pigmented skin of guinea pigs; assay: Test of the depigmenting power on pigmented guinea pigs; conditions: glycerol-based cream comprising 5% of product, twice daily
Protocol: Guinea pigs with a pigmented skin, shaved beforehand, received twice daily, 5 days out of 7, during one to two months of treatment, applications of a glycerol-based cream comprising 5% of kojic acid (ref. Aldrich 22,046-9) or 5% of hydroquinone (ref. Aldrich H 1,790-2) or 5% of benzoyl isothiocyanate (ref. Aldrich 30,818-8) or 5% of synthetic sulforaphane prepared according to Example 3. These applications were carried out on circular regions with a diameter of 2 cm pinpointed by indelible marking using yellow ink.

[3] = tested on: Type-6 pigmented epidermis (reconstituted human skin); assay: Power to inhibit the synthesis of melanin with regard to pigmented human skin reconstituted in culture; type: cell-based; conditions: daily for 5 days, then two further days
Protocol: Type-6 pigmented epidermis (corresponding to black skin), in a proportion of three samples per test, were treated daily for 5 days with a control cream with the following composition (as % by weight): [table] with kojic acid at a concentration of 3.5×10^−5 (w/w) and with sulforaphane at a concentration of 3.5×10^−6 (w/w) in the same cream acting as excipient. At the end of the treatment, the culture skin is left for a further two days and the melanin is extracted from the treated skin and from the control skin with a mixture of solvents and sodium hydroxide (Solvable® from Packard Bioscience B.V.) and the melanin extracted is quantified by colorimetry according to a method described previously (Chemical Characterization of Hair Melanins in Various Coat-Color Mutants of Mice; Hiroyuki Ozeki et al., J. Invest.

Structure (SMILES) | Concentration which inhibits the enzymatic activity of tyrosinase by 50% [1] | Effect on the synthesis of melanin (in words) (cultured melanocytes) | Inhibition of the synthesis of melanin (cultured melanocytes) [%] | further results
CC(=O)N=C=S [Acetyl isothiocyanate] | 0.055 % (weight/volume) | – | – | –
O=C(N=C=S)c1ccccc1 [Benzoyl isothiocyanate] | 0.0063 % (weight/volume) | no longer have an effect | 9.5 | Times more active than hydroquinone in inhibiting tyrosinase [1]: approximately 24 times; Desquamation of the skin at the application spots ([2]; 5 days out of 7): desquamation of the skin
S=C=NCc1ccccc1 [Benzyl isothiocyanate] | 0.0980 % (weight/volume) | – | – | –
N#CSCc1ccccc1 [Benzyl thiocyanate] | 0.25 % (weight/volume) | – | – | –
S=C=NC1CCCCC1 [Cyclohexyl isothiocyanate] | 0.104 % (weight/volume) | – | – | –
Oc1ccc(O)cc1 [Hydroquinone] | 0.154 % (weight/volume) | inhibit the synthesis of melanin | 42 | Cytotoxicity (cultured melanocytes; cultured melanocytes): excessively high cytotoxicity
O=c1cc(CO)occ1O [Kojic acid, kojic acid, reference compound] | – | no longer have an effect | 1 | Inhibition of the synthesis of melanin (melatonin [sic]) ([3]; 3.5×10^−5 (w/w) in cream): 8%; Whitening of the skin ([2]; 5 days out of 7, after treating for 4 weeks): no effect
N#C[S-].[K+] [Potassium thiocyanate] | 0.20 % (weight/volume) | – | – | –
C[S+]([O-])CCCCN=C=S (centres unmarked) [Sulforaphane] | 0.103 % (weight/volume) | inhibit the synthesis of melanin | 26.22 | Inhibition of the synthesis of melanin (melatonin [sic]) ([3]; 3.5×10^−6 (w/w) in cream): 30%; Times more active than hydroquinone in inhibiting tyrosinase [1]: approximately 1.5 times

Reference: patent US20040077715A1, “Use of an isothiocyanate, a thiocyanate or a mixture thereof as depigmenting agent” (priority 2001, published 2004)
